Laboratory results: US20140163061A1, “Methods For Reducing Blood Pressure” (FibroGen, Inc., priority 2008, published 2014)

Tested on: human subjects with chronic kidney disease
Assay: Blood pressure in human CKD subjects over a four week period, weekly readings, Example 6
Type: in vivo
Experimental: Hypertension is a common condition in patients with chronic kidney disease. (Agarwal et al. (2005) Hypertension 46:514-520.) The effect of a compound of the present invention on blood pressure in anemic and non-anemic human subjects with advanced stage chronic kidney disease was examined. All study subjects had chronic kidney disease (CKD), defined as having a glomerular filtration rate (GFR)<59 ml/min. Some of these CKD subjects also had anemia, defined as having hemoglobin (Hb) levels<11 g/dL. Subjects were orally administered compound A or a placebo two or three times per week for four weeks. Blood pressure readings (i.e. systolic, diastolic, and mean arterial pressure) were taken at various times with a sphygmomanometer according to standard assessments. In another series of experiments, the effects of a medicament of the present invention on blood pressure in anemic and non-anemic subjects with chronic kidney disease were determined over a four week period. All subjects were orally administered compound A or a placebo two or three-times per week for four weeks and blood pressure readings were taken weekly. Table 6, Table 7, and Table 8 below show weekly changes in mean arterial pressure (MAP), systolic blood pressure (SBP), and diastolic blood pressure (DBP) following oral administration of compound A to human CKD subjects.

Cc1nc(C(=O)NCC(=O)O)c(O)c2ccc(Oc3ccccc3)cc12 [A, [(4-hydroxy-1-methyl-7-phenoxy-isoquinoline-3-carbonyl)-amino]-acetic acid]
Mean change from Baseline Diastolic BP (mmHg) (All Subjects, Week 1): −3.66 mmHg | Mean change from Baseline MAP (mmHg) (All Subjects, Week 1): −4.28 mmHg | Mean change from Baseline Systolic BP (mmHg) (All Subjects, Week 1): −5.45 mmHg | Mean change from Baseline Diastolic BP (mmHg) (All Subjects, Week 2): −3.37 mmHg | Mean change from Baseline MAP (mmHg) (All Subjects, Week 2): −5.44 mmHg | Mean change from Baseline Systolic BP (mmHg) (All Subjects, Week 2): −9.47 mmHg | Mean change from Baseline Diastolic BP (mmHg) (All Subjects, Week 3): −1.53 mmHg | Mean change from Baseline MAP (mmHg) (All Subjects, Week 3): −4.03 mmHg | Mean change from Baseline Systolic BP (mmHg) (All Subjects, Week 3): −8.97 mmHg | Mean change from Baseline Diastolic BP (mmHg) (All Subjects, Week 4): −1.54 mmHg | Mean change from Baseline MAP (mmHg) (All Subjects, Week 4): −2.85 mmHg | Mean change from Baseline Systolic BP (mmHg) (All Subjects, Week 4): −5.54 mmHg | Mean change from Baseline Diastolic BP (mmHg) (Anemic, Week 1): −4.43 mmHg | Mean change from Baseline MAP (mmHg) (Anemic, Week 1): −4.57 mmHg | Mean change from Baseline Systolic BP (mmHg) (Anemic, Week 1): −4.80 mmHg | Mean change from Baseline Diastolic BP (mmHg) (Anemic, Week 2): −3.77 mmHg | Mean change from Baseline MAP (mmHg) (Anemic, Week 2): −6.13 mmHg | Mean change from Baseline Systolic BP (mmHg) (Anemic, Week 2): −10.77 mmHg | Mean change from Baseline Diastolic BP (mmHg) (Anemic, Week 3): −2.50 mmHg | Mean change from Baseline MAP (mmHg) (Anemic, Week 3): −5.47 mmHg | Mean change from Baseline Systolic BP (mmHg) (Anemic, Week 3): −11.40 mmHg | Mean change from Baseline Diastolic BP (mmHg) (Anemic, Week 4): −1.13 mmHg | Mean change from Baseline MAP (mmHg) (Anemic, Week 4): −3.08 mmHg | Mean change from Baseline Systolic BP (mmHg) (Anemic, Week 4): −7.25 mmHg | Mean change from Baseline Diastolic BP (mmHg) (Non-Anemic, Week 1): −2.00 mmHg | Mean change from Baseline MAP (mmHg) (Non-Anemic, Week 1): −3.67 mmHg | Mean change from Baseline Systolic BP (mmHg) (Non-Anemic, Week 1): −6.86 mmHg | Mean change from Baseline Diastolic BP (mmHg) (Non-Anemic, Week 2): −2.50 mmHg | Mean change from Baseline MAP (mmHg) (Non-Anemic, Week 2): −3.95 mmHg | Mean change from Baseline Systolic BP (mmHg) (Non-Anemic, Week 2): −6.67 mmHg | Mean change from Baseline Diastolic BP (mmHg) (Non-Anemic, Week 3): 0.40 mmHg | Mean change from Baseline MAP (mmHg) (Non-Anemic, Week 3): −1.14 mmHg | Mean change from Baseline Systolic BP (mmHg) (Non-Anemic, Week 3): −4.10 mmHg | Mean change from Baseline Diastolic BP (mmHg) (Non-Anemic, Week 4): −2.20 mmHg | Mean change from Baseline MAP (mmHg) (Non-Anemic, Week 4): −2.48 mmHg | Mean change from Baseline Systolic BP (mmHg) (Non-Anemic, Week 4): −2.80 mmHg
